According to patent US20190076406A1, “METHODS AND COMPOSITIONS FOR TREATING CONDITIONS ASSOCIATED WITH ANGIOGENESIS USING A VASCULAR ADHESION PROTEIN-1 (VAP-1) INHIBITOR” (MASSACHUSETTS EYE & EAR INFIRMARY, priority 2007, published 2019):

Assays:
[1] = tested on: IL-1β-induced corneal angiogenesis in BALB/c mice; experiment: Leukocyte infiltration in IL-1β-implanted cornea (immunostaining); format: in vivo, mouse; details: 0.3 mg/kg daily i.p.
Experimental: (§1) BALB/c mice were anesthetized by intrapcritoneal (i.p.) injection of pentobarbital sodium (60 mg/kg). Hydron pellets (0.3 μl) containing 30 ng mouse IL-1β (401-ML; R&D Systems) were prepared and implanted into the corneas. Pellets were positioned 1 mm from the corneal limbus. Implanted eyes were treated with Bacitracin ophthalmic ointment (E. Fougera & Co.) to prevent infection.
(§2) To block VAP-1, mice received daily i.p. injections of a specific VAP-1 inhibitor, Compound II (R-tech Ueno Ltd., Tokyo, Japan) as described above. A daily dose of 0.3 mg/kg was administered at day 0 and continued until the sixth day after implantation. Two, four and six days after implantation, digital images of the corneal vessels were obtained and recorded using OpenLab software version 2.2.5 (Improvision Inc.) with standardized illumination and contrast and were saved onto disks. The quantitative analysis of new vessel growth in the mouse corneas was performed using Scion Image software (version 4.0.2; Scion Corp.).
Mice were sacrificed under deep anesthesia with pentobarbital sodium (60 mg/kg i.p.). The eyes were harvested, snap-frozen in optimal cutting temperature (OCT) compound (Sakura Finetechnical) and 10 μm sections were prepared, air-dried and fixed in cold acetone for 10 min. The sections were blocked with nonfat dried-milk (M7409; Sigma) for 10 minutes and stained with anti-CD11b mAb (1:100, 550282; BD Pharmingen), anti-Gr-1 mAb (1:100, 550282; BD Pharmingen) or anti-F4/80 mAb (1:100, MCA497G; Scrotec). After an overnight incubation, sections were washed and stained for 20 min. with secondary Abs, FITC-conjugated goat anti-rat (1:100, AP136F; Chemicon International).

[2] = target: T1, human semicarbazide-sensitive amine oxidase (SSAO) (Homo sapiens, UniProt Q16853); experiment: IC50 against human SSAO; format: biochemical
T1 sequence (Q16853 1-763): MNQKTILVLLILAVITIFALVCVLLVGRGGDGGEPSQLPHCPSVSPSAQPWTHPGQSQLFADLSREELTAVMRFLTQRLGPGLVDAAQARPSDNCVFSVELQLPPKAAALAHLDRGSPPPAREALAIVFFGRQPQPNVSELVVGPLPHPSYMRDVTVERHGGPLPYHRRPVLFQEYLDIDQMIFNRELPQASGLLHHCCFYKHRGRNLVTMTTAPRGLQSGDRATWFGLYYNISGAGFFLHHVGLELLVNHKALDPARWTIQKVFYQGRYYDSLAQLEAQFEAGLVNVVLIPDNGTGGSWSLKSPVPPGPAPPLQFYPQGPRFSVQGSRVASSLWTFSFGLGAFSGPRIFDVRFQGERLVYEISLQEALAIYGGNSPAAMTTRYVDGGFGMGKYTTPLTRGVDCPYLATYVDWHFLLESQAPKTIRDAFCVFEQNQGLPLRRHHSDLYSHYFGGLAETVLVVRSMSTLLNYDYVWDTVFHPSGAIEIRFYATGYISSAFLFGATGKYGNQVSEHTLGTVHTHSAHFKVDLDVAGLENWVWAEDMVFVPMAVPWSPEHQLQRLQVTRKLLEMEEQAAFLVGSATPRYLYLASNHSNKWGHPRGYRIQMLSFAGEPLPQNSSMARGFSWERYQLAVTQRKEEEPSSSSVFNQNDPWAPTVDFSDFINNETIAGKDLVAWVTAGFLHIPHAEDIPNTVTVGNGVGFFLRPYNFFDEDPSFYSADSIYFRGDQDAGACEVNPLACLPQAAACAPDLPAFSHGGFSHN

[3] = tested on: IL-1β-induced corneal lymphangiogenesis in BALB/c mice; experiment: IL-1β-induced corneal lymphangiogenesis (LYVE-1 stain); format: in vivo, mouse; details: IL-1β pellet; i.p. administration; vs vehicle
Experimental: as §1, §2
Eyes were enucleated and fixed with 4% paraformaldehyde for one hour at 4° C. For whole-mount preparation, the corneas were exposed by removing other portions of the eye (i.e. iris, sclera, retina, and conjunctiva). After washing with PBS, tissues were placed in methanol for 20 minutes. […]

CC(=O)Nc1nc(CCc2ccc(NC(=N)NN)cc2)c(Cc2ccc(S(C)(=O)=O)cc2)s1 [Compound II]
infiltration of CD11b(+) cells in cornea ([1]; 3 days after pellet implantation): effectively inhibited | number of F4/80(+) cells in cornea ([1]; IL-1β-implanted cornea): less than in vehicle-treated cornea or untreated cornea | number of Gr-1(+) cells in cornea ([1]; IL-1β-implanted cornea): less than in vehicle-treated cornea or untreated cornea | IC50 [2]: 7 nM | growth of lymphatic vessels in cornea [3]: reduced growth of lymphatic vessels
